The results in this text go back to patent publication US20250084041A1, “ANTIMICROBIAL COMPOUNDS AND METHODS” (Curza Global, LLC, priority 2021, published 2025).

One may read the MIC as the lowest concentration that inhibits growth of the organism. Broadly, the IC50 is the concentration that gives 50% inhibition.

The test system of one experiment is S. aureus (Sa). In words: Broth microdilution MIC, S. aureus. In kind it is cell-based. The following applies: for MIC: Staphylococcus aureus, read-out: Sa + bicarb 25 (MIC). In outline:
(§1)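 Inoculum 5×10^4 CFU/well; media CAMHB ± 25 mM NaHCO3 or ± 0-50% heat-inactivated human serum; 2-fold series, 8 concentrations, triplicate; modified CLSI M07-A9 MIC.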

The test system of a further experiment is E. coli (Ec). As to the kind of experiment: Broth microdilution MIC, E. coli. In kind it is cell-based. The following applies: for MIC: Escherichia coli, read-out: E. coli + bicarb 25 (MIC). As for the experimental part:
A certified BSL-2 laboratory was used for testing. Compounds were evaluated using the broth microdilution minimum inhibitory concentration (MIC) and minimum bactericidal concentration (MBC) assays defined by Clinical and Laboratory Standards Institute (CLSI) in the M26-A guideline against S. aureus (Sa), E. coli (Ec), K. pneumoniae (Kp), A. baumannii (Ab), E. faecalis (Ef) and P. aeruginosa (Pa).
MICs were determined using the Clinical Laboratory and Standards Institute (CLSI) Broth Microdilution Method with slight modification. Clinical and Laboratory Standards Institute (2012). “Methods for dilution antimicrobial susceptibility tests for bacteria that grow aerobically; approved standard, 9th ed. M07-A9. Clinical and Laboratory Standards Institute, Wayne, PA.” Serial two-fold dilutions of compounds are prepared in sterile clear round-bottom 96-well plates.
To prepare microdilution trays, two-fold dilutions of antimicrobial agent are prepared in growth medium: Cation-Adjusted Mueller-Hinton Broth (CAMHB), or CAMHB supplemented with sodium bicarbonate (25 mM final concentration prepared from a 1.0 M stock solution) or CAMHB supplemented with heat inactivated human serum (Fisher Cat. #BP2657100) 0-50% by adding 200 μL of the highest concentration to be tested (64 μg/mL, for example) in row A, mixing and transferring 100 μL from row A to 100 μL growth medium in row B, then repeating the mixing and transferring through row H of the 96-well plate, discarding the excess 100 μL remaining. This slight modification to the CLSI protocol enables evaluation of MICs for 3 compounds per plate in triplicate, albeit with only 8 compound dilutions (CLSI protocol enables 2 compounds in triplicate with 10 dilutions). Bacterial suspensions are added to a final concentration of 5×10^4 CFU/well by adding 5 μL of a 1:10 dilution of a 0.5 McFarland suspension (1×10^8 CFU/mL) for each bacterium evaluated. Bacterial suspensions were prepared using the growth method described by CLSI. Well-isolated colonies (3-5 from an agar plate) were selected using a sterile loop and used to inoculate a tube containing 4 mL of CAMHB. The cultures are incubated at 35±2° C. until it achieves or exceeds the turbidity of the 0.5 McFarland standard, determined by measuring A600nm (usually two to six hours). When growth exceeds a 0.5 McFarland standard, the turbidity is adjusted with broth to be equivalent to a 0.5 McFarland standard.
A general note: In broth dilution the organism is exposed to a series of concentrations in liquid medium.

For another experiment, the system named is P. aeruginosa (Pa). In words: Broth microdilution MIC, P. aeruginosa. In kind it is cell-based. The following applies: for MIC: Pseudomonas aeruginosa, read-out: Pa + bicarb 25 (MIC). In a few lines: as §1
The next experiment has as its system A. baumannii (Ab). In words: Broth microdilution MIC, A. baumannii. In kind it is cell-based. As to conditions: for MIC: Acinetobacter baumannii, read-out: Ab + bicarb 25 (MIC); for Ab + bicarb 25 (MIC): hydrochloride salt. In a few lines:
as §1

The subject of a further experiment is E. faecalis (Ef). In words: Broth microdilution MIC, E. faecalis. In kind it is cell-based. As to conditions: for MIC: Enterococcus faecalis, read-out: Ef + bicarb 25 (MIC). In a few lines:
as §1

The subject of the next experiment is E. coli S30 extract. As to the kind of experiment: E. coli S30 extract: inhibition of bacterial protein synthesis (luciferase). In kind it is biochemical. As to conditions: 37° C. 1 hour. In outline: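 Coupled transcription-translation in E. coli S30 extract, programmed with pBESTluc plasmid, was run with 8-point 2-fold compound dilutions for 1 h at 37 °C. After a cold stop, luciferase luminescence was read and percent inhibition calculated against no-inhibitor controls.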

Experiment [1] addresses Rabbit Reticulocyte Lysate. As to the kind of experiment: Rabbit Reticulocyte Lysate: inhibition of eukaryotic protein synthesis (luciferase). The following applies: 30° C. 90 minutes, read-out: Retic. IC50. In kind it is biochemical. In a few lines: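 Nuclease-treated rabbit reticulocyte lysate translating luciferase control RNA with complete amino acids; compounds in 8-point 2-fold dilutions, 90 min at 30° C. Luminescence read after luciferase reagent; % inhibition versus water (no-inhibitor) control, no-RNA wells as background.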

Where [2] appears, read: S. aureus, CAMHB supplemented with sodium bicarbonate 25 mM.
The mark [3] stands for this setting: E. coli, CAMHB supplemented with sodium bicarbonate 25 mM.
[4] abbreviates: P. aeruginosa, CAMHB supplemented with sodium bicarbonate 25 mM.
Where [5] appears, read: A. baumannii, CAMHB supplemented with sodium bicarbonate 25 mM.
Setting [6] is: E. faecalis, CAMHB supplemented with sodium bicarbonate 25 mM.

Where a name gives a salt, the structure may show the parent alone. Read-outs that look alike come from different tables or passages of the source.

For `CC(C)(N)C(=O)N1CCN(C(=O)Nc2ccn(C3CCC(CN4C[C@@H]5[C@@H](N)[C@@H]5C4)CC3)c(=O)n2)CC1` (stereo partly drawn) [Compound 5, 4-(2-Amino-2-methylpropanoyl)-N-(1-(4-((exo-6-amino-3-azabicyclo[3.1.0]hexan-3-yl)methyl)cyclohexyl)-2-oxo-1,2-dihydropyrimidin-4-yl)piperazine-1-carboxamide hydrochloride salt], the “Sa + bicarb 25 (MIC)” value with S. aureus (Sa) (setting [2]) was “+++ (An MIC value (μg/mL) that is less than 8 μg/mL)”. Further, the “E. coli + bicarb 25 (MIC)” value in the experiment with E. coli (Ec) (setting [3]) is “+++ (An MIC value (μg/mL) that is less than 8 μg/mL)”. Moreover, the “Pa + bicarb 25 (MIC)” value with P. aeruginosa (Pa) (setting [4]) is listed as “+ (An MIC value (μg/mL) that is 32 μg/mL or greater)”. For the same compound, the figures for the minimal inhibitory concentration (MIC) in the experiment with A. baumannii (Ab) and with E. faecalis (Ef) were 8 to 32 µg/mL and < 8 µg/mL, respectively. Further, the results for the IC50 (in the experiment with E. coli S30 extract (hydrochloride salt); in experiment [1]) were < 500 nM and ≥ 1000 nM, respectively.
Take `CC(C)(N)C(=O)N1CCN(C(=O)Nc2ccn(C3CCC(CN4C[C@@H]5[C@@H](N)[C@@H]5C4)CC3)c(=O)n2)CC1` (stereo partly drawn) [Compound 6, 4-(2-Amino-2-methylpropanoyl)-N-(1-(cis-4-((exo-6-amino-3-azabicyclo[3.1.0]hexan-3-yl)methyl)cyclohexyl)-2-oxo-1,2-dihydropyrimidin-4-yl)piperazine-1-carboxamide hydrochloride salt]: the MIC in the experiment with S. aureus (Sa) (setting [2]) is < 8 µg/mL; in the experiment with E. coli (Ec) (setting [3]) it was < 8 µg/mL; in the experiment with P. aeruginosa (Pa) (setting [4]), > 32 µg/mL; in the experiment on E. faecalis (Ef) (setting [6]) it was 8 to 32 µg/mL. In addition, the “Ab + bicarb 25 (MIC)” value in the experiment on A. baumannii (Ab) (setting [5]) was “+ (An MIC value (μg/mL) that is 32 μg/mL or greater)”. Besides, the IC50 (in the experiment with E. coli S30 extract (hydrochloride salt); in experiment [1]) was ≥ 1000 nM throughout.
For the compound `CC(C)(N)C(=O)N1CCN(C(=O)Nc2ccn(C3CCC(CN4C[C@@H]5[C@@H](N)[C@@H]5C4)CC3)c(=O)n2)CC1` (stereo partly drawn) [Compound 7, 4-(2-Amino-2-methylpropanoyl)-N-(1-(trans-4-((exo-6-amino-3-azabicyclo[3.1.0]hexan-3-yl)methyl)cyclohexyl)-2-oxo-1,2-dihydropyrimidin-4-yl)piperazine-1-carboxamide hydrochloride salt], in the experiment on S. aureus (Sa) (setting [2]), the “Sa + bicarb 25 (MIC)” value is given as “+++ (An MIC value (μg/mL) that is less than 8 μg/mL)”. Also, the “E. coli + bicarb 25 (MIC)” value in the experiment on E. coli (Ec) (setting [3]) is listed as “+++ (An MIC value (μg/mL) that is less than 8 μg/mL)”. Also, the “Pa + bicarb 25 (MIC)” value in the experiment with P. aeruginosa (Pa) (setting [4]) is recorded as “+ (An MIC value (μg/mL) that is 32 μg/mL or greater)”. The “Ab + bicarb 25 (MIC)” value in the experiment with A. baumannii (Ab) (setting [5]) is “++ (An MIC value (μg/mL) that is 8 μg/mL or greater and less than 32 μg/mL)”. Also, the “Ef + bicarb 25 (MIC)” value in the experiment with E. faecalis (Ef) (E. faecalis, CAMHB supplemented with sodium bicarbonate 25 mM, hydrochloride salt) is “+++ (An MIC value (μg/mL) that is less than 8 μg/mL)”. The half-maximal inhibitory concentration (IC50) in the experiment with E. coli S30 extract (hydrochloride salt) is < 500 nM; in experiment [1], ≥ 1000 nM.
Regarding `CC(C)(N)C(=O)N1CCN(C(=O)Nc2ccn(C3CCC(CN4C[C@@H]5[C@@H](CN)[C@@H]5C4)CC3)c(=O)n2)CC1` (stereo partly drawn) [Compound 8, 4-(2-Amino-2-methylpropanoyl)-N-(1-(4-((exo-6-(aminomethyl)-3-azabicyclo[3.1.0]hexan-3-yl)methyl)cyclohexyl)-2-oxo-1,2-dihydropyrimidin-4-yl)piperazine-1-carboxamide hydrochloride salt], the MIC in the experiment on S. aureus (Sa) (setting [2]) is < 8 µg/mL; with E. coli (Ec) (setting [3]), < 8 µg/mL; in the experiment with P. aeruginosa (Pa) (setting [4]), 8 to 32 µg/mL; with A. baumannii (Ab) (setting [5]), > 32 µg/mL; in the experiment on E. faecalis (Ef) (setting [6]), < 8 µg/mL. The values for the IC50 (in the experiment with E. coli S30 extract; in experiment [1]) were < 500 nM and ≥ 1000 nM, respectively.
As to `CC(C)(N)C(=O)N1CCN(C(=O)Nc2ccn(C3CCC(CN4CCCC(N)CC4)CC3)c(=O)n2)CC1` (stereo not drawn) [Compound 9, 4-(2-Amino-2-methylpropanoyl)-N-(1-(4-((4-aminoazepan-1-yl)methyl)cyclohexyl)-2-oxo-1,2-dihydropyrimidin-4-yl)piperazine-1-carboxamide hydrochloride salt], the MIC is < 8 µg/mL with S. aureus (Sa); < 8 µg/mL in the experiment with E. coli (Ec); > 32 µg/mL in the experiment on P. aeruginosa (Pa); 8 to 32 µg/mL in the experiment with A. baumannii (Ab); < 8 µg/mL with E. faecalis (Ef). The results for the IC50 (with E. coli S30 extract; in experiment [1]) were < 500 nM and ≥ 1000 nM, respectively.
Take `CC(C)(N)C(=O)N1CCN(C(=O)Nc2ccn(C3=CCC(CN4C[C@@H]5[C@@H](N)[C@@H]5C4)CC3)c(=O)n2)CC1` (stereo partly drawn) [Compound 12, 4-(2-Amino-2-methylpropanoyl)-N-(1-(4-(((1R,5S,6s)-6-amino-3-azabicyclo[3.1.0]hexan-3-yl)methyl)cyclohex-1-en-1-yl)-2-oxo-1,2-dihydropyrimidin-4-yl)piperazine-1-carboxamide hydrochloride salt]: the MIC in the experiment with S. aureus (Sa) (setting [2]) was < 8 µg/mL; with E. coli (Ec) (setting [3]), < 8 µg/mL; in the experiment on P. aeruginosa (Pa) (setting [4]) it was > 32 µg/mL; in the experiment with A. baumannii (Ab) (setting [5]) it was 8 to 32 µg/mL; with E. faecalis (Ef) (setting [6]) it was < 8 µg/mL. The IC50 is < 500 nM in the experiment on E. coli S30 extract and ≥ 1000 nM in experiment [1].
As to `CC(C)(N)C(=O)N1CCN(C(=O)Nc2ccn(C3CCC(CN[C@H]4CC[C@H](N)C4)CC3)c(=O)n2)CC1` (stereo partly drawn) [Compound 13, 4-(2-Amino-2-methylpropanoyl)-N-(1-(4-((((1S,3S)-3-aminocyclopentyl)amino)methyl)cyclohexyl)-2-oxo-1,2-dihydropyrimidin-4-yl)piperazine-1-carboxamide hydrochloride salt], the minimum inhibitory concentration (MIC) is < 8 µg/mL in the experiment with S. aureus (Sa); < 8 µg/mL with E. coli (Ec); > 32 µg/mL in the experiment with P. aeruginosa (Pa); > 32 µg/mL in the experiment on A. baumannii (Ab); 8 to 32 µg/mL with E. faecalis (Ef). Further, the IC50 in the experiment with E. coli S30 extract is < 500 nM; in experiment [1], ≥ 1000 nM.
For `CC(C)(N)C(=O)N1CCN(C(=O)Nc2ccn(C3CCC(CN4CC(CN)C4)CC3)c(=O)n2)CC1` (stereo not drawn) [Compound 14, 4-(2-Amino-2-methylpropanoyl)-N-(1-(4-((3-(aminomethyl)azetidin-1-yl)methyl)cyclohexyl)-2-oxo-1,2-dihydropyrimidin-4-yl)piperazine-1-carboxamide hydrochloride salt], the MIC in the experiment on S. aureus (Sa) is < 8 µg/mL; in the experiment on E. coli (Ec), < 8 µg/mL; in the experiment on P. aeruginosa (Pa) it was > 32 µg/mL; in the experiment with A. baumannii (Ab), > 32 µg/mL; in the experiment on E. faecalis (Ef) it was 8 to 32 µg/mL. The IC50 is < 500 nM with E. coli S30 extract and ≥ 1000 nM in experiment [1].
On to `CC(C)(N)C(=O)N1CCN(C(=O)Nc2ccn(C3CCC(CN4CCC5(CC4)CC(N)C5)CC3)c(=O)n2)CC1` (stereo not drawn) [Compound 16, 4-(2-Amino-2-methylpropanoyl)-N-(1-(4-((2-amino-7-azaspiro[3.5]nonan-7-yl)methyl)cyclohexyl)-2-oxo-1,2-dihydropyrimidin-4-yl)piperazine-1-carboxamide hydrochloride salt], for which the minimum inhibitory concentration (MIC) with S. aureus (Sa) is < 8 µg/mL; in the experiment with E. coli (Ec), < 8 µg/mL; with P. aeruginosa (Pa), 8 to 32 µg/mL; in the experiment with A. baumannii (Ab) it was < 8 µg/mL; with E. faecalis (Ef) it was < 8 µg/mL. Further, the IC50 in the experiment with E. coli S30 extract is < 500 nM; in experiment [1], ≥ 1000 nM.
